Reference: article PMC6150237, “Study of Absorption Characteristics of the Total Saponins from Radix Ilicis Pubescentis in an In Situ Single-Pass Intestinal Perfusion (SPIP) Rat Model by Using Ultra Performance Liquid Chromatography (UPLC)” (Molecules : A Journal of Synthetic Chemistry and Natural …, 2017)

Assays:
[1] = system: rat small intestine (duodenum, jejunum, ileum); assay: In situ single-pass intestinal perfusion (SPIP), saponins administrated in MDQ-TS form; type: in vivo; set-up: key: -: no absorption
Description: (§1) MDQ-TS perfusion samples at low, middle, and high concentration levels of 1.25, 2.5, and 5.0 mg·mL^−1 were prepared by separately dissolving MDQ-TS in the minimum amount of DMSO and diluted with K-R buffer solution. The amount of DMSO was 0.5% in the final perfusion solutions. C1, C2, C3, C4, DC1, and DC2 perfusion samples with the concentration equivalent to the amount contained in 2.5 mg·mL^−1 of MDQ-TS were individually prepared in the same way. Verapamil, amantadine and EDTA were directly dissolved in the MDQ-TS perfusate with terminal concentrations of 200 μmol·L^−1, 2.5 mmol·L^−1, and 2.5 mmol·L^−1, accordingly, and used for investigating the mechanisms involved for absorption.
(§2) In situ single-pass intestinal perfusion (SPIP) studies were performed using an experimental design adapted from the literature with some modifications. Briefly, male Sprague-Dawley rats weighing 180–220 g were acclimatized for at least one week before the experiment, and fasted for 18 h with free access to water before the perfusion experiment. Rats were anesthetized with an intraperitoneal injection of urethane (30 mg·kg^−1 body weight), and kept on a homeothermic blanket to maintain normal body temperature. The abdomen was opened with a midline longitudinal incision, and three segments of rat intestine (duodenum, jejunum, and ileum) of approximately 10 cm each were carefully cannulated on two ends with plastic tubing. Initially, the perfusion solution free of drug (37 °C) was pumped by peristaltic pump (BT100-1F, Longer Pump Co., Baoding, China) through the cannulated segments at a flow rate of 1 mL/min for approximately 30 min in order to clean out any residual debris. Secondly, the perfusion solution containing a known concentration of substance (C1, C2, C3, C4, DC1, DC2, and MDQ-TS) was perfused at 37 °C through the intestinal lumen at a constant flow rate of 0.2 mL/min. The first 20 min of period corresponds to steady state, i.e., when the substance is in equilibrium with the intestinal membrane. After steady state, samples were collected from distal portion of duodenum, jejunum and ileum at 10 min intervals (0–10, 10–20, 20–30, 30–40, 40–50, 50–60 min) in pre-weighted vials. Samples were immediately frozen at −20 °C until analysis by validated UPLC. During the experiment, care was taken to avoid disturbance of the circulatory system and the exposed segment was covered with a piece of sterilized gauze to keep it warm and moist by frequent application of warm (37 °C) saline. The intestinum tenue maintained its viability and intact state without disrupting the blood supply throughout the experimental period. Finally, animals were sacrificed after depth anesthesia by intraperitoneal injection of urethane, according to protocols for euthanasia in experimental animals. After death, the intestinal segment was removed for measurements of length and inside diameter.
(§3) The net water flux in the in situ perfusion studies (water absorption and efflux in the intestinal segment) was determined by gravimetric method. The effective absorption rate constant (Ka) and effective apparent permeability (Papp) of compounds in the intestinal segments were calculated according to the following mathematical expression:(1) Ka=(1−CoutQout/CinQin)Q/V (2) Papp=−Qln(CoutQout/CinQin)/2πrl where Cin and Cout are the concentration of test drug in the effluent perfusate through the inlet and outlet tube (μg·mL^−1), respectively. Qin and Qout represent the inlet and outlet volume of effluent perfusate (mL), respectively. Q is the volume flow rate of perfusion (mL·h^−1). V is the volume of the intestinal segment concerned (mL). 2πrl is the area of the mass transfer surface of intestinal segment concerned (cm^2).

rat duodenum [2] = assay: SPIP of MDQ-TS with or without verapamil (P-gp inhibitor); type: in vivo; conditions: MDQ-TS 2.5 mg/mL
Description: as §1, §2
as §3, with “(cm^2). […]” for “(cm^2).”

rat duodenum [3] = assay: SPIP of MDQ-TS with or without EDTA (tight junction modulator); type: in vivo; conditions: MDQ-TS 2.5 mg/mL, EDTA 2.5 mmol·L^−1
Description: as §1, §2
as §3, with “(cm^2). […]” for “(cm^2).”

[4] = Apparent oil-water partition coefficient, shake-flask method; type: physicochemical; conditions: n-octanol / phosphate buffer pH 1.2-9.0, 37 °C; Kow = log Co/(Ct−Co)
Description: The equilibrium partitioning of C1, C2, C3, C4, DC1, and DC2 between organic lipid and water (Kow) was determined in our study by the traditional shake-flask method (SFM). Briefly, 0.5 mL of each saponin standard working solution (100 µg·mL^−1 in water-saturated n-octanol) was accurately measured into 5 mL centrifuge tubes, and spiked with 0.5 mL of different phosphate buffer solutions (pH: 1.2, 2.0, 3.6, 5.8, 6.8, 7.4, 7.8, and 9.0), respectively. After vortex-mixing for 45 min, the tubes were kept in a temperature-stable horizontal shaking bath (37 °C) for 24 h, and then centrifuged at 13,000 rpm for 10 min. Two hundred microliters of organic supernatant solution was measured, diluted with 800 µL of methanol, and mixed well. Ten microliters of the final solution was injected into the HPLC system (detailed experimental conditions and method validation results were not shown) for determination of the drug concentration in the n-octanol phase. The Kow values of the six saponins were calculated according to the following mathematical expression:(3) Kow=logCo/Ct−Co where Ct is the total concentration of the drug, and Co is the concentration of the drug in n-octanol phase.

[5] = MDQ-TS form 1.25 mg·mL^−1, duodenum, symbol
[6] = MDQ-TS form 1.25 mg·mL^−1, ileum, symbol
[7] = MDQ-TS form 1.25 mg·mL^−1, jejunum, symbol
[8] = MDQ-TS form 2.5 mg·mL^−1, duodenum, n = 5
[9] = MDQ-TS form 2.5 mg·mL^−1, ileum, n = 5
[10] = MDQ-TS form 2.5 mg·mL^−1, jejunum, n = 5
[11] = MDQ-TS form 5.0 mg·mL^−1, duodenum, n = 5
[12] = MDQ-TS form 5.0 mg·mL^−1, ileum, n = 5
[13] = MDQ-TS form 5.0 mg·mL^−1, jejunum, n = 5
[14] = administrated in MDQ-TS form, summary bound (except DC2 in 1.25 mg·mL^−1 MDQ-TS group)
[15] = MDQ-TS form 1.25 mg·mL^−1, duodenum, n = 5
[16] = MDQ-TS form 1.25 mg·mL^−1, ileum, n = 5
[17] = MDQ-TS form 1.25 mg·mL^−1, jejunum, n = 5

Row | Compound | Ka [1, 8] | Papp [1, 8] | Ka [1, 9] | Papp [1, 9] | Ka [1, 10] | Papp [1, 10] | Ka [1, 11] | Papp [1, 11] | Ka [1, 12] | Papp [1, 12] | Ka [1, 13] | Papp [1, 13] | Papp [1, 14] [cm/min] | Ka increase in comparison with non-EDTA added group (rat duodenum [3]) [fold] | Papp increase in comparison with non-EDTA added group (rat duodenum [3]) | apparent oil-water partition coefficient (Kow) [4] | Ka [1, 15] | Ka [1, 16] | Ka [1, 17] | Ka increase in comparison with non-Verapamil added group (rat duodenum [2]; verapamil 200 μmol·L^−1) | also measured
1 | C[C@@H]1O[C@@H](O[C@H]2[C@H](O[C@H]3[C@H](O[C@H]4CC[C@]5(C)[C@H]6CC=C7[C@H]8[C@](C(=O)O[C@@H]9O[C@H](CO)[C@@H](O)[C@H](O)[C@H]9O)(CC[C@H](C)[C@@]8(C)O)CC[C@@]7(C)[C@]6(C)CC[C@H]5C4(C)C)OC[C@@H](O)[C@@H]3O)O[C@H](CO)[C@@H](O)[C@@H]2O)[C@H](O)[C@H](O)[C@H]1O [DC2, ilexoside O] | 0.62 ± 0.13 ×10^−2 min^−1 | 0.16 ± 0.06 ×10^−2 cm·min^−1 | 1.54 ± 0.85 ×10^−2 min^−1 | 0.19 ± 0.08 ×10^−2 cm·min^−1 | 1.23 ± 0.46 ×10^−2 min^−1 | 0.21 ± 0.08 ×10^−2 cm·min^−1 | 1.27 ± 0.44 ×10^−2 min^−1 | 0.25 ± 0.16 ×10^−2 cm·min^−1 | 1.14 ± 0.45 ×10^−2 min^−1 | 0.19 ± 0.07 ×10^−2 cm·min^−1 | 1.73 ± 0.66 ×10^−2 min^−1 | 0.26 ± 0.17 ×10^−2 cm·min^−1 | > 0.0012 | ~3.0 | ~2.1 fold | −1 to 2 |  |  |  |  | Ka [1, 5]: -; Papp [1, 5]: -; Ka [1, 6]: -; Papp [1, 6]: -; Ka [1, 7]: -; Papp [1, 7]: -; intestinal absorption in Verapamil added group (rat duodenum [2]; verapamil 200 μmol·L^−1, result in words): could not be absorbed by the small intestine at all
2 | C[C@H]1CC[C@]2(C(=O)O)CC[C@]3(C)C(=CC[C@@H]4[C@@]5(C)CC[C@H](O[C@@H]6OC[C@@H](O)[C@H](O)[C@H]6O[C@@H]6O[C@H](CO)[C@@H](O)[C@H](O)[C@H]6O)C(C)(C)[C@@H]5CC[C@]43C)[C@@H]2[C@]1(C)O [C3, ilexsaponin B1] | 2.19 ± 0.52 ×10^−2 min^−1 | 0.36 ± 0.06 ×10^−2 cm·min^−1 | 3.77 ± 0.41 ×10^−2 min^−1 | 0.42 ± 0.03 ×10^−2 cm·min^−1 | 3.82 ± 0.49 ×10^−2 min^−1 | 0.40 ± 0.13 ×10^−2 cm·min^−1 | 1.80 ± 0.97 ×10^−2 min^−1 | 0.39 ± 0.24 ×10^−2 cm·min^−1 | 1.66 ± 0.95 ×10^−2 min^−1 | 0.29 ± 0.15 ×10^−2 cm·min^−1 | 2.48 ± 0.86 ×10^−2 min^−1 | 0.40 ± 0.24 ×10^−2 cm·min^−1 | > 0.0012 | ~1.5 | ~1.9 fold | −1 to 2 | 1.16 ± 0.26 ×10^−2 min^−1 | 1.04 ± 0.11 ×10^−2 min^−1 | 0.94 ± 0.12 ×10^−2 min^−1 | ~1.2 fold | Papp [1, 15]: 0.24 ± 0.10 ×10^−2 cm·min^−1; Papp [1, 16]: 0.18 ± 0.01 ×10^−2 cm·min^−1; Papp [1, 17]: 0.17 ± 0.04 ×10^−2 cm·min^−1; Papp increase in comparison with non-Verapamil added group (rat duodenum [2]; verapamil 200 μmol·L^−1): ~1.4 fold
3 | C[C@@H]1O[C@@H](O[C@H]2[C@H](O[C@H]3[C@H](O[C@H]4CC[C@]5(C)[C@H]6CC=C7[C@H]8[C@](C(=O)O)(CC[C@H](C)[C@@]8(C)O)CC[C@@]7(C)[C@]6(C)CC[C@H]5C4(C)C)OC[C@@H](O)[C@@H]3O)O[C@H](CO)[C@@H](O)[C@@H]2O)[C@H](O)[C@H](O)[C@H]1O [C4, ilexsaponin B2] | 1.94 ± 0.50 ×10^−2 min^−1 | 0.42 ± 0.05 ×10^−2 cm·min^−1 | 2.53 ± 0.29 ×10^−2 min^−1 | 0.40 ± 0.03 ×10^−2 cm·min^−1 | 3.19 ± 0.56 ×10^−2 min^−1 | 0.49 ± 0.03 ×10^−2 cm·min^−1 | 1.87 ± 0.86 ×10^−2 min^−1 | 0.40 ± 0.22 ×10^−2 cm·min^−1 | 1.52 ± 0.92 ×10^−2 min^−1 | 0.26 ± 0.15 ×10^−2 cm·min^−1 | 1.92 ± 0.61 ×10^−2 min^−1 | 0.45 ± 0.18 ×10^−2 cm·min^−1 | > 0.0012 | ~1.5 | ~1.5 fold | −1 to 2 | 1.04 ± 0.31 ×10^−2 min^−1 | 0.83 ± 0.28 ×10^−2 min^−1 | 0.84 ± 0.47 ×10^−2 min^−1 | about 1.5 fold | Papp [1, 15]: 0.20 ± 0.09 ×10^−2 cm·min^−1; Papp [1, 16]: 0.14 ± 0.04 ×10^−2 cm·min^−1; Papp [1, 17]: 0.14 ± 0.05 ×10^−2 cm·min^−1
4 | C[C@@H]1CC[C@]2(C(=O)O)CC[C@]3(C)C(=CC[C@@H]4[C@@]5(C)CC[C@H](O)[C@@](C)(C(=O)O)[C@@H]5CC[C@]43C)[C@@H]2[C@]1(C)O [C1, ilexgenin A] | 1.70 ± 0.31 ×10^−2 min^−1 |  | 2.90 ± 0.37 ×10^−2 min^−1 |  | 2.23 ± 0.39 ×10^−2 min^−1 |  | 1.68 ± 0.74 ×10^−2 min^−1 |  | 1.48 ± 0.76 ×10^−2 min^−1 |  | 2.30 ± 1.24 ×10^−2 min^−1 |  |  | ~1.6 | about 1.7 fold | −1 to 2 | 1.86 ± 0.73 ×10^−2 min^−1 | 0.89 ± 0.08 ×10^−2 min^−1 | 0.95 ± 0.28 ×10^−2 min^−1 | about 1.5 fold | 
